Measured values reported in PubChem BioAssay AID2060893 (Molecular Pharmacology Branch, DTP, NCI, 2025).

Test system: K86415-001-R-J1-PDC complex spheroids, viability
Test: Anticancer human tumor K86415-001-R-J1-PDC patient-derived lung adenocarcinoma cell line growth inhibition [RAS]
Conditions: for IC50: curve of first compound; for viability, T/C: stronger effect = lower value; active = viability on the fitted dose curve at most 10% of control; inactive = the rest
Procedure, shortened: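 Tumour cells grown as complex spheroids with HUVEC endothelial cells and mesenchymal stem cells, treated with RAS pathway inhibitor combinations. Each agent spans half-log steps from near clinical Cmax, or 10 microM where Cmax is unknown.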
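Note: spheroids exposed to agents for seven days before readout.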

C=CC(=O)Nc1cc(Nc2nccc(-c3cn(C)c4ccccc34)n2)c(OC)cc1N(C)CCN(C)C + C=CC(=O)N1CCN(c2nc(OCC3CCCN3C)nc3c(F)c(-c4nc(N)cc(C)c4C(F)(F)F)c(Cl)cc23)C(C)C1
inactive: viability, T/C (second compound 0.00316 µM, first compound 0.00316 µM) 19.7% | viability, T/C (second compound 0.00316 µM, first compound 0.01 µM) 17.1% | viability, T/C (second compound 0.00316 µM, first compound 0.0316 µM) 15.6% | viability, T/C (second compound 0.00316 µM, first compound 0.1 µM) 13.2% | viability, T/C (second compound 0.01 µM, first compound 0.00316 µM) 11.2% | viability, T/C (second compound 0.01 µM, first compound 0.01 µM) 10.3% | viability, T/C (second compound 0.0316 µM, first compound 0.00316 µM) 10.1% | viability, T/C (second compound 0.1 µM, first compound 0.00316 µM) 10% | viability, T/C (second compound 1 µM, first compound 0.00316 µM) 11%
active: viability, T/C (second compound 0.00316 µM, first compound 0.316 µM) 8.17% | viability, T/C (second compound 0.00316 µM, first compound 1 µM) 7.25% | viability, T/C (second compound 0.01 µM, first compound 0.0316 µM) 11% | viability, T/C (second compound 0.01 µM, first compound 0.1 µM) 8.19% | viability, T/C (second compound 0.01 µM, first compound 0.316 µM) 6.56% | viability, T/C (second compound 0.01 µM, first compound 1 µM) 6.11% | viability, T/C (second compound 0.0316 µM, first compound 0.01 µM) 11.4% | viability, T/C (second compound 0.0316 µM, first compound 0.0316 µM) 8.27% | viability, T/C (second compound 0.0316 µM, first compound 0.1 µM) 6% | viability, T/C (second compound 0.0316 µM, first compound 0.316 µM) 5.17% | viability, T/C (second compound 0.0316 µM, first compound 1 µM) 5.86% | viability, T/C (second compound 0.1 µM, first compound 0.01 µM) 9.55% | viability, T/C (second compound 0.1 µM, first compound 0.0316 µM) 8.9% | viability, T/C (second compound 0.1 µM, first compound 0.1 µM) 7.91% | viability, T/C (second compound 0.1 µM, first compound 0.316 µM) 5.85% | viability, T/C (second compound 0.1 µM, first compound 1 µM) 5.65% | viability, T/C (second compound 0.316 µM, first compound 0.00316 µM) 8.48% | viability, T/C (second compound 0.316 µM, first compound 0.01 µM) 10.5% | viability, T/C (second compound 0.316 µM, first compound 0.0316 µM) 11.3% | viability, T/C (second compound 0.316 µM, first compound 0.1 µM) 6.83% | viability, T/C (second compound 0.316 µM, first compound 0.316 µM) 5.85% | viability, T/C (second compound 0.316 µM, first compound 1 µM) 5.41% | viability, T/C (second compound 1 µM, first compound 0.01 µM) 10.2% | viability, T/C (second compound 1 µM, first compound 0.0316 µM) 7.67% | viability, T/C (second compound 1 µM, first compound 0.1 µM) 8.2% | viability, T/C (second compound 1 µM, first compound 0.316 µM) 7.08% | viability, T/C (second compound 1 µM, first compound 1 µM) 6.01%
< 3.16 nM: IC50 (second compound 0.00316 µM) | IC50 (second compound 0.01 µM) | IC50 (second compound 0.0316 µM) | IC50 (second compound 0.1 µM) | IC50 (second compound 0.316 µM) | IC50 (second compound 1 µM)
